In article PMC9610943, “Truncated Pleurocidin Derivative with High Pepsin Hydrolysis Resistance to Combat Multidrug-Resistant Pathogens” (Pharmaceutics, 2022):
Where no end group is shown, it is not given here.

Tests used:
MRSA T144 [1] = test: microbe, parasite or virus in culture; format: cell-based, Staphylococcus aureus; settings: T144
Method: (§1) S. aureus ATCC 29213, E. coli ATCC 25922, S. enteritidis ATCC 13076 and A. baumannii ATCC 19609 were obtained from the American Type Culture Collection (ATCC). The remaining strains used in the experiment were all preserved strains in our laboratory. All strains were cultured in nutrient broth overnight to the logarithmic phase at 37 °C prior to each experiment.
(§2) The MICs of all drugs were determined by micro-broth dilution method according to CLSI 2018 guidelines. Briefly, a single colony of the bacterial strain was transferred to 1 mL of Mueller Hilton broth (MHB) and overnight at 37 °C and then 10 μL were cultured in a new 1 mL medium for 4 to 6 h, and then the bacterial culture at the logarithmic phase was diluted to 1 × 10^6 CFUs/mL. The assay was performed by adding 100 μL of each peptide solution at various concentrations (0.25 to 128 μg/mL) and 100 μL of diluted bacterial culture to different wells of a 96-well microtiter plate (Corning, NY, USA). After incubation at 37 °C for 16 to 18 h and then read its MIC value. MIC value is defined as the lowest drug concentration without visible bacteria.

MRSA 1530 = test: microbe, parasite or virus in culture; format: cell-based, Staphylococcus aureus; settings: 1530
Method: as §1, §2

E. coli B2 = format: cell-based; settings: for MIC after treatment at 121 °C / MIC in DMEM (10%) / MIC in Plasma (10%) / MIC in Serum (10%) / MIC in presence of Ca^2+ / MIC in presence of K^+ / MIC in presence of Mg^2+ / MIC in presence of Na^+ / MIC, Control: B2; for MIC after Papain treatment / MIC after Pepsin treatment / MIC after Trypsin treatment / MIC after treatment at 40 °C / MIC after treatment at 60 °C / MIC after treatment at 80 °C / MIC after treatment at 100 °C / MIC after treatment at pH 2 / MIC after treatment at pH 4 / MIC after treatment at pH 6 / MIC after treatment at pH 8 / MIC after treatment at pH 10 / MIC after treatment at pH 12: B2, 1 h
Method: as §2
(§3) Then, the antibacterial activity of the peptides affected by different temperatures and pH were determined according to the determination steps of MICs test.
(§4) In MHB medium, Na^+, K^+, Mg^2+ and Ca^2+ with the final concentrations of 10 mM, fetal bovine serum, plasma or DMEM medium (Hyclone, Logan, UT, USA) with the final concentrations of 10% was added, and then MIC values were measured to evaluate the effects of different cations, serum and plasma on the antibacterial activity of peptides.
(§5) The peptide was incubated with protease (pepsin, trypsin and papain) (Solarbio, Beijing, China) with a final concentration of 1 mg/mL at 37 °C for 1 h, then the mixture of peptide and protease was heated at 100 °C for 30 min, then centrifuged at 13,000× g for 30 min, and the supernatant was taken for MIC determination.

E. coli CP131 (mcr-3) = test: microbe, parasite or virus in culture; format: cell-based; settings: CP131 (mcr-3)
Method: as §1, §2

A. baumannii ATCC 19609 = test: microbe, parasite or virus in culture; format: cell-based; settings: ATCC 19609
Method: as §1, §2

S. aureus ATCC 29213 = test: microbe, parasite or virus in culture; format: cell-based; settings: ATCC 29213
Method: as §1, §2

[2] = tested on: S. aureus 215 (cfr + LZD^R); test: microbe, parasite or virus in culture; format: cell-based; settings: S. aureus 215 (cfr + LZD^R); micro-broth dilution CLSI 2018, MHB, 37 °C, 16 to 18 h
Method: as §1, §2

[3] = tested on: E. faecalis A4 (VRE, VanA); test: microbe, parasite or virus in culture; format: cell-based; settings: A4 (VRE, VanA)
Method: as §1, §2

E. coli ATCC 25922 = test: microbe, parasite or virus in culture; format: cell-based; settings: ATCC 25922
Method: as §1, §2

P. aeruginosa PA14 = test: microbe, parasite or virus in culture; format: cell-based; settings: PA14
Method: as §1, §2

E. coli G92 (mcr-1) = test: microbe, parasite or virus in culture; format: cell-based; settings: G92 (mcr-1)
Method: as §1, §2

[4] = tested on: S. enteritidis ATCC 13076; test: microbe, parasite or virus in culture; format: cell-based; settings: ATCC 13076
Method: as §1, §2

E. coli B3-1 (tet(X4)) = test: microbe, parasite or virus in culture; format: cell-based; settings: B3-1 (tet(X4))
Method: as §1, §2

S. aureus G16 (RIF^R) = test: microbe, parasite or virus in culture; format: cell-based; settings: S. aureus G16 (RIF^R); micro-broth dilution CLSI 2018, MHB, 37 °C, 16 to 18 h
Method: as §1, §2

[5] = tested on: E. coli B2 (blaNDM-5 + mcr-1); test: microbe, parasite or virus in culture; format: cell-based; settings: B2 (blaNDM-5 + mcr-1)
Method: as §1, §2

E. coli 1F28 (tet(X4)) = test: microbe, parasite or virus in culture; format: cell-based; settings: 1F28 (tet(X4))
Method: as §1, §2

E. coli C3 (blaNDM-1) = test: microbe, parasite or virus in culture; format: cell-based; settings: C3 (blaNDM-1)
Method: as §1, §2

[6] = tested on: P. aeruginosa (VIM + tmexCD1-torJ1); test: microbe, parasite or virus in culture; format: cell-based; settings: VIM + tmexCD1-torJ1
Method: as §1, §2

E. coli G6 (blaNDM-5) = test: microbe, parasite or virus in culture; format: cell-based; settings: G6 (blaNDM-5)
Method: as §1, §2

MRSA T144 [7] = format: cell-based, Staphylococcus aureus; settings: for MIC after treatment at 121 °C / MIC in DMEM (10%) / MIC in Plasma (10%) / MIC in Serum (10%) / MIC in presence of Ca^2+ / MIC in presence of K^+ / MIC in presence of Mg^2+ / MIC in presence of Na^+ / MIC, Control: T144; for MIC after Papain treatment / MIC after Pepsin treatment / MIC after Trypsin treatment / MIC after treatment at 40 °C / MIC after treatment at 60 °C / MIC after treatment at 80 °C / MIC after treatment at 100 °C / MIC after treatment at pH 2 / MIC after treatment at pH 4 / MIC after treatment at pH 6 / MIC after treatment at pH 8 / MIC after treatment at pH 10 / MIC after treatment at pH 12: T144, 1 h
Method: as §2, §3, §4, §5

[8] = tested on: P. cibarius HNCF44W (blaNDM-1+ tet(X6)); test: organism not typed; format: cell-based
Method: as §1, §2

GWKSFFKKFKHVWK [GK-3]
64 µg/mL: MIC after Pepsin treatment (E. coli B2) | MIC (P. aeruginosa PA14) | MIC after Pepsin treatment (MRSA T144 [7])
16 µg/mL: MIC (MRSA 1530) | MIC (E. coli 1F28 (tet(X4))) | MIC [6]
>128 µg/mL: MIC in presence of Ca^2+ (E. coli B2) | MIC after Papain treatment (E. coli B2) | MIC after Trypsin treatment (E. coli B2) | MIC in presence of Ca^2+ (MRSA T144 [7]) | MIC after Papain treatment (MRSA T144 [7]) | MIC after Trypsin treatment (MRSA T144 [7])
2 µg/mL: MIC in presence of K^+ (E. coli B2) | MIC in presence of Na^+ (E. coli B2) | MIC after treatment at 40 °C (E. coli B2) | MIC after treatment at 60 °C (E. coli B2) | MIC after treatment at 80 °C (E. coli B2) | MIC after treatment at pH 4 (E. coli B2) | MIC after treatment at pH 6 (E. coli B2) | MIC after treatment at pH 8 (E. coli B2) | MIC after treatment at pH 10 (E. coli B2) | MIC after treatment at pH 12 (E. coli B2) | MIC (E. coli CP131 (mcr-3)) | MIC (E. coli G92 (mcr-1)) | MIC (E. coli B3-1 (tet(X4))) | MIC in presence of Na^+ (MRSA T144 [7]) | MIC after treatment at 60 °C (MRSA T144 [7])
4 µg/mL: MIC after treatment at 121 °C (E. coli B2) | MIC in DMEM (10%) (E. coli B2) | MIC, Control (E. coli B2) | MIC after treatment at 100 °C (E. coli B2) | MIC after treatment at pH 2 (E. coli B2) | MIC (A. baumannii ATCC 19609) | MIC (S. aureus ATCC 29213) | MIC [2] | MIC [4] | MIC [5] | MIC (E. coli C3 (blaNDM-1)) | MIC (E. coli G6 (blaNDM-5)) | MIC in DMEM (10%) (MRSA T144 [7]) | MIC in Plasma (10%) (MRSA T144 [7]) | MIC in presence of K^+ (MRSA T144 [7]) | MIC after treatment at 40 °C (MRSA T144 [7]) | MIC after treatment at 80 °C (MRSA T144 [7]) | MIC after treatment at pH 2 (MRSA T144 [7]) | MIC after treatment at pH 4 (MRSA T144 [7]) | MIC after treatment at pH 6 (MRSA T144 [7]) | MIC after treatment at pH 8 (MRSA T144 [7]) | MIC after treatment at pH 10 (MRSA T144 [7]) | MIC after treatment at pH 12 (MRSA T144 [7])
0.5 µg/mL: MIC in Plasma (10%) (E. coli B2)
8 µg/mL: MIC (MRSA T144 [1]) | MIC in Serum (10%) (E. coli B2) | MIC (E. coli ATCC 25922) | MIC (S. aureus G16 (RIF^R)) | MIC after treatment at 121 °C (MRSA T144 [7]) | MIC in Serum (10%) (MRSA T144 [7]) | MIC in presence of Mg^2+ (MRSA T144 [7]) | MIC, Control (MRSA T144 [7]) | MIC after treatment at 100 °C (MRSA T144 [7]) | MIC [8]
32 µg/mL: MIC in presence of Mg^2+ (E. coli B2) | MIC [3]

GWGSFFKKAAHVGKHVGKAALTHYL [Pleu, Pleurocidin]
64 µg/mL: MIC after Pepsin treatment (MRSA T144 [7])
>128 µg/mL: MIC in presence of Ca^2+ (E. coli B2) | MIC after Papain treatment (E. coli B2) | MIC after Trypsin treatment (E. coli B2) | MIC in presence of Ca^2+ (MRSA T144 [7]) | MIC after Papain treatment (MRSA T144 [7]) | MIC after Trypsin treatment (MRSA T144 [7])
2 µg/mL: MIC (MRSA T144 [1]) | MIC after treatment at 121 °C (E. coli B2) | MIC, Control (E. coli B2) | MIC after treatment at 100 °C (E. coli B2) | MIC (A. baumannii ATCC 19609) | MIC [2] | MIC (S. aureus G16 (RIF^R)) | MIC [5] | MIC in DMEM (10%) (MRSA T144 [7]) | MIC in Plasma (10%) (MRSA T144 [7]) | MIC in presence of K^+ (MRSA T144 [7]) | MIC in presence of Na^+ (MRSA T144 [7]) | MIC, Control (MRSA T144 [7]) | MIC after treatment at 40 °C (MRSA T144 [7]) | MIC after treatment at 80 °C (MRSA T144 [7]) | MIC after treatment at pH 6 (MRSA T144 [7]) | MIC [8]
<0.25 µg/mL: MIC in Plasma (10%) (E. coli B2)
128 µg/mL: MIC in presence of Mg^2+ (E. coli B2) | MIC after Pepsin treatment (E. coli B2)
1 µg/mL: MIC in Serum (10%) (E. coli B2) | MIC in presence of K^+ (E. coli B2) | MIC in presence of Na^+ (E. coli B2) | MIC after treatment at 40 °C (E. coli B2) | MIC after treatment at 60 °C (E. coli B2) | MIC after treatment at 80 °C (E. coli B2) | MIC after treatment at pH 2 (E. coli B2) | MIC after treatment at pH 4 (E. coli B2) | MIC after treatment at pH 6 (E. coli B2) | MIC after treatment at pH 8 (E. coli B2) | MIC after treatment at pH 10 (E. coli B2) | MIC after treatment at pH 12 (E. coli B2) | MIC (E. coli CP131 (mcr-3)) | MIC (E. coli ATCC 25922) | MIC (P. aeruginosa PA14) | MIC (E. coli G92 (mcr-1)) | MIC [4] | MIC (E. coli B3-1 (tet(X4))) | MIC (E. coli C3 (blaNDM-1)) | MIC (E. coli G6 (blaNDM-5)) | MIC after treatment at 60 °C (MRSA T144 [7])
8 µg/mL: MIC (MRSA 1530) | MIC [3] | MIC after treatment at 121 °C (MRSA T144 [7]) | MIC in presence of Mg^2+ (MRSA T144 [7])
4 µg/mL: MIC in DMEM (10%) (E. coli B2) | MIC (S. aureus ATCC 29213) | MIC (E. coli 1F28 (tet(X4))) | MIC [6] | MIC in Serum (10%) (MRSA T144 [7]) | MIC after treatment at 100 °C (MRSA T144 [7]) | MIC after treatment at pH 2 (MRSA T144 [7]) | MIC after treatment at pH 4 (MRSA T144 [7]) | MIC after treatment at pH 8 (MRSA T144 [7]) | MIC after treatment at pH 10 (MRSA T144 [7]) | MIC after treatment at pH 12 (MRSA T144 [7])
